The source made the active and inactive calls. How the calls were made is not given here.
Assays:
[1] = target: T1, Porphobilinogen deaminase (Homo sapiens) (UniProt P08397); conditions: at 100 µM
T1 sequence (whole entry): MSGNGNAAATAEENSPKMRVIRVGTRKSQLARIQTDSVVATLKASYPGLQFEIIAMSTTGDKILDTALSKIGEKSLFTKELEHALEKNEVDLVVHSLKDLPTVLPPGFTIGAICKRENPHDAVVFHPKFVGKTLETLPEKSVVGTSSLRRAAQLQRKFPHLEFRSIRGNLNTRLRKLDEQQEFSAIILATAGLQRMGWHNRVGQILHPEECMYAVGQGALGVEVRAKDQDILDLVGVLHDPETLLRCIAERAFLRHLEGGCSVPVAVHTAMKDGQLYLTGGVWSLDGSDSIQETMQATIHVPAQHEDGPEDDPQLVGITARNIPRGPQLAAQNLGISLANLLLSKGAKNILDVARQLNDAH
Description: Compound was evaluated for the inhibition of human HMBS at 100uM

[2] = target: T2, Ferrochelatase, mitochondrial (Homo sapiens) (UniProt P22830); conditions: at 10 µM
T2 sequence (whole entry): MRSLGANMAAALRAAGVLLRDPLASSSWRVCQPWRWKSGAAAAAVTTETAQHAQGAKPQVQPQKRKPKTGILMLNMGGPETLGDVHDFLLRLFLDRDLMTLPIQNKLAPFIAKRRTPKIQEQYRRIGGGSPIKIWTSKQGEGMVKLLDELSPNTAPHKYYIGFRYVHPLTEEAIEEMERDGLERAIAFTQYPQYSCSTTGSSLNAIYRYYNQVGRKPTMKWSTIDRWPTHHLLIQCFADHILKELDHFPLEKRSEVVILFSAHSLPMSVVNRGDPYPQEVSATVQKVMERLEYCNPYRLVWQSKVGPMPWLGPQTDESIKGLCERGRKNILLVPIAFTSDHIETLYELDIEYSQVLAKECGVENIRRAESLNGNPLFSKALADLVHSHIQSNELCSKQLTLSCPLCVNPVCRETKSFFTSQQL
Description: Compound was evaluated for the inhibition of human FECH at 10uM

CNc1nnc(Sc2cnn(-c3ccccc3)c(=O)c2Cl)s1
inhibition [1]: inactive | inhibition [2]: inactive

CC1CC1C(=O)NC1CCN(CC2(c3ccccc3)CCCCC2)CC1 (stereo unspecified)
inhibition [1]: inactive | inhibition [2]: inactive

Cc1cc(OCC(=O)Nc2ccc(C(C)C)cc2)n(C)c(=O)c1C#N
inhibition [1]: inactive | inhibition [2]: inactive

Cc1cc(NCC(C)C)c2[nH]nc(-c3ccccc3)c2n1
inhibition [1]: inactive | inhibition [2]: inactive

COc1ccc(-c2cc(NC(=O)c3ccc(F)cc3Cl)ccc2OC)cc1
inhibition [1]: inactive | inhibition [2]: inactive

Cc1cccc(Cn2ccc(NC(=O)c3ccc4c(c3)OCO4)n2)c1
inhibition [1]: inactive | inhibition [2]: inactive

C[C@H](C(N)=O)N1CCCC[C@H]1c1ccc(OCc2cccc(F)c2)cc1
inhibition [1]: inactive | inhibition [2]: inactive

CO[C@@H](C(=O)N1Cc2[nH]nc(NC(=O)c3ccc(N4CCN(C)CC4)cc3)c2C1)c1ccccc1
inhibition [1]: inactive | inhibition [2]: inactive

c1ccc(-c2nc(NC3CCCCC3)cc(C3CC3)n2)nc1
inhibition [1]: inactive | inhibition [2]: inactive

CC(C)=CCC/C(C)=C\CNCCNC1C2CC3CC(C2)CC1C3 (stereo unspecified)
inhibition [1]: inactive | inhibition [2]: inactive

CCN(CC)C(=O)N1CCN(C)CC1
inhibition [1]: inactive | inhibition [2]: inactive

Cc1cc(O)nc(-n2nc(C)cc2C)n1
inhibition [1]: inactive | inhibition [2]: inactive

COc1ccc(-c2cnc3cnc(-c4cccc(OC(C)C)c4)cn23)cc1
inhibition [1]: inactive | inhibition [2]: inactive

N#CCN(CCCCN1CCN(c2ccc(F)cc2)CC1)C(=O)OCc1ccccc1
inhibition [1]: inactive | inhibition [2]: inactive

COc1cccc(CC(=O)N2CCC(n3c(C)nc4ccc(F)cc43)CC2)c1
inhibition [1]: inactive | inhibition [2]: inactive

CC(C)(C)n1nc(Cc2cccc3ccccc23)c2c(N)ncnc21
inhibition [1]: inactive | inhibition [2]: inactive

O=C(NC1CCN(c2ccnc3ccccc23)C1)c1cccc(C(F)(F)F)c1 (stereo unspecified)
inhibition [1]: inactive | inhibition [2]: inactive

CCS(=O)(=O)N(Cc1ccco1)Cc1cc2ccc(C)cc2nc1O
inhibition [1]: inactive | inhibition [2]: inactive

CC(=O)NC[C@@H]1CN(c2ccc(N3CCOCC3)c(F)c2)C(=O)O1
inhibition [1]: inactive | inhibition [2]: inactive

CC(C)(C)CN1C(=O)C(c2ccccc2)(c2ccccc2)N=C1N
inhibition [1]: inactive | inhibition [2]: inactive

CC(C)C(C(=O)Nc1ccc(S(=O)(=O)N(C)C)cc1)c1ccc(Cl)cc1 (stereo unspecified)
inhibition [1]: inactive | inhibition [2]: inactive

CCc1ccc(S(=O)(=O)Nc2cc(CN3CCN(CCC(C)C)CC3)ccc2C)cc1
inhibition [1]: inactive | inhibition [2]: inactive

O=C(Nc1ccc2c(c1)B(O)OC2)c1ccccc1C(F)(F)F
inhibition [1]: inactive | inhibition [2]: inactive

Cc1cccc(-c2nc(Nc3ccncn3)c3sccc3n2)n1
inhibition [1]: inactive | inhibition [2]: inactive

Cc1cc(C(=O)Nc2cnn(Cc3ccc(Cl)cc3Cl)c2)no1
inhibition [1]: inactive | inhibition [2]: inactive

CC(=O)N(CCN(C(=O)c1ccc(F)cc1)c1ccccc1)c1ccccc1
inhibition [1]: inactive | inhibition [2]: inactive

N#Cc1ccc(-c2ccc(OCC(N)=O)cc2)cc1
inhibition [1]: inactive | inhibition [2]: inactive

COc1cc(C(F)(F)F)nc2ccc(C)c(N)c12
inhibition [1]: inactive | inhibition [2]: inactive

O=C(c1ccc(F)cc1)N(CCNc1ccccc1)c1ccccc1
inhibition [1]: inactive | inhibition [2]: inactive

COc1ccc(-c2cnc3ccc(N4CCCC4)nn23)cc1OC
inhibition [1]: inactive | inhibition [2]: inactive

CCc1nc2ccc(C(=O)NCc3ccc4c(c3)OCO4)cn2c1N(C)Cc1cccs1
inhibition [1]: inactive | inhibition [2]: inactive

CCc1c(C)nc(-n2nc(C)cc2NC(=O)c2ccccc2SC)[nH]c1=O
inhibition [1]: inactive | inhibition [2]: inactive

c1coc(CNc2nc(N3CCCCC3)nc3ccccc23)c1
inhibition [1]: inactive | inhibition [2]: inactive

Clc1ccc(CN2CCN(C3=NCCN3)CC2)cc1Cl
inhibition [1]: inactive | inhibition [2]: inactive

Cc1ccc2c(c1C)NC(=O)C21NN=C(c2ccccc2)S1 (stereo unspecified)
inhibition [1]: inactive | inhibition [2]: inactive

c1ccc2c(c1)CN(CC1CC1)CC1(CCN(Cc3c[nH]c4cnccc34)CC1)O2
inhibition [1]: inactive | inhibition [2]: inactive

COc1ccc2nc(C)cc(OCC(=O)NCc3ccccc3)c2c1
inhibition [1]: inactive | inhibition [2]: inactive

O=C(C1CCCCC1)N1CC(=O)N2CCc3ccccc3C2C1 (stereo unspecified)
inhibition [1]: inactive | inhibition [2]: inactive

N#Cc1nc(-c2ccccc2F)oc1NCCc1ccccc1
inhibition [1]: inactive | inhibition [2]: inactive

O=[N+]([O-])c1cn2c(n1)OC[C@@H](OCc1ccc(OC(F)(F)F)cc1)C2
inhibition [1]: inactive | inhibition [2]: inactive

CC(C)(C)[C@H]1CC[C@H](CC2=C(O)C(=O)c3ccccc3C2=O)CC1
inhibition [1]: inactive | inhibition [2]: inactive

NCCN(C(=O)c1ccc(Cl)cc1Cl)c1ccc(OCc2ccc(Cl)cc2)cc1
inhibition [1]: inactive | inhibition [2]: inactive

Nc1ccc2ncnc(Nc3ccc(OCc4cccc(F)c4)c(Cl)c3)c2c1
inhibition [1]: inactive | inhibition [2]: inactive

Cc1ccccc1C(=O)N1N=C(Nc2ccccc2)SC1(C)C
inhibition [1]: inactive | inhibition [2]: inactive

CCCCc1ccc(C(=O)Nc2nccc3ccccc23)nc1
inhibition [1]: inactive | inhibition [2]: inactive

CCn1ncc2c(NC3CCOCC3)c(CNC(=O)c3ccnn3C)c(C)nc21
inhibition [1]: inactive | inhibition [2]: inactive

FC(F)(F)c1nnc2ccc(Cl)nn12
inhibition [1]: inactive | inhibition [2]: inactive

CC(C)NCC(=O)Nc1cccc(C(=O)Nc2cccc(C(F)(F)F)c2)c1
inhibition [1]: inactive | inhibition [2]: inactive

O=C(Nc1nnc(-c2ccc(Cl)s2)o1)c1ccc(Cl)s1
inhibition [1]: inactive | inhibition [2]: inactive

COc1ccc(C2CC(c3cccs3)=NN2C(=O)c2ccco2)cc1OC (stereo unspecified)
inhibition [1]: inactive | inhibition [2]: inactive

Cc1cc(NC(=O)c2ccc(Oc3ccc(Cl)cc3O)o2)no1
inhibition [1]: inactive | inhibition [2]: inactive

O=C(c1ccco1)N(CCCn1ccnc1)c1nc2c(Cl)cccc2s1
inhibition [1]: inactive | inhibition [2]: inactive

COc1cccc(NC(=O)c2c(NC(=O)c3cccnc3)sc3c2CCC3)c1
inhibition [1]: inactive | inhibition [2]: inactive

COc1ccc(CN2CCOc3ccc(C(C)(O)CN(C)C)cc3C2)cc1C (stereo unspecified)
inhibition [1]: inactive | inhibition [2]: inactive

COc1ccc2nccc(NC(=O)C3CCN(CCc4ccc(Cl)cc4)CC3)c2n1
inhibition [1]: inactive | inhibition [2]: inactive

CC(=O)Nc1ccc(-c2noc(CC3CCCN(Cc4cccc(F)c4C)C3)n2)cc1 (stereo unspecified)
inhibition [1]: inactive | inhibition [2]: inactive

COc1cc(Br)cc2cc(C(=O)Nc3cccc(C(F)(F)F)c3)c(=O)oc12
inhibition [1]: inactive | inhibition [2]: inactive

Cn1ccnc1CNCCS(=O)(=O)c1cccc(Nc2ccc(-c3cccc(F)c3)cn2)c1
inhibition [1]: inactive | inhibition [2]: inactive

CN1CCN(S(=O)(=O)c2ccc(-c3ccc4c(Nc5ccc6nn[nH]c6c5)ccnc4c3)cc2)CC1
inhibition [1]: inactive | inhibition [2]: inactive

CCCn1c(NC(=O)c2ccc3ccccc3n2)nc2ccccc21
inhibition [1]: inactive | inhibition [2]: inactive

CCN(CC)S(=O)(=O)c1ccc(Cl)c(C(=O)Nc2ccc3nc(C)sc3c2)c1
inhibition [1]: inactive | inhibition [2]: inactive

COc1ccc(-c2cnc3ccc(NCc4ccc(S(N)(=O)=O)cc4)nn23)cn1
inhibition [1]: inactive | inhibition [2]: inactive

Cc1ccc(-c2cc(C(=O)Nc3cccnc3)c3cc(Br)ccc3n2)cc1
inhibition [1]: inactive | inhibition [2]: inactive

Cc1nn2c(O)c3c(nc2c1-c1ccc(F)cc1)CCCC3
inhibition [1]: inactive | inhibition [2]: inactive

COc1ccc(N(CCc2cccc(C)n2)C(C)=O)cc1
inhibition [1]: inactive | inhibition [2]: inactive

Cc1ccc2cc(C3NC(=O)c4ccccc4N3)c(Cl)nc2c1 (stereo unspecified)
inhibition [1]: inactive | inhibition [2]: inactive

COc1ccc(Oc2ccc([C@@H](C)N(C)c3ncc4c(N)nc(N)nc4n3)cc2)cc1
inhibition [1]: inactive | inhibition [2]: inactive

O=C(NCCc1ccccc1)c1cc(-c2cccnc2)cnc1NCC1CC1
inhibition [1]: inactive | inhibition [2]: inactive

— ChEMBL document CHEMBL3987221, “The Australian National University Dept Of Immunology Pathogen Box Compounds Screened” (2018)
